Data published in patent US12630552B2, “Inhibitors of KRAS G12C” (BEIGENE, LTD., priority 2019, dated 2026).

biological target: T1, KRAS (aa 1-169) G12C, C51S, C80L, C118S (Homo sapiens, UniProt P01116, C118S/C51S/C80L/G12C); assay: KRAS G12C SOS1-mediated nucleotide exchange / GST-cRaf RBD binding FRET assay; format: biochemical; conditions: GDP-loaded KRAS G12C pre-incubated with compound at 24° C. for 3 hrs; SOS1, GTPγS and GST-cRaf RBD added; FRET 665 nm/620 nm
T1 construct: The KRAS (aa 1-169) G12C, C51S, C80L, C118S with a His-tag; made in house
T1 sequence (P01116 1-169 isoform P01116-2 G12C/C51S/C80L/C118S): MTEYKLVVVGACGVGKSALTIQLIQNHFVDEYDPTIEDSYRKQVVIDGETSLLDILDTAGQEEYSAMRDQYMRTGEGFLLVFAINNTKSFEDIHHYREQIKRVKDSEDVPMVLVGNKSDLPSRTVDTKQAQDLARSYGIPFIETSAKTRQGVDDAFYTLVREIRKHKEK
Protocol: Biochemical Functional Assay:
The KRAS (aa 1-169) G12C, C51S, C80L, C118S with a His-tag was expressed, purified and loaded with GDP in house. All protein and substrate solutions were prepared in assay buffer containing 25 mM HEPES pH7.5, 10 mM MgCl2, and 0.01% Triton X-100. Purified GDP-loaded KRAS (aa 1-169) G12C, C51S, C80L, C118S protein was pre-incubated with a serially diluted compound at 24° C. for 3 hrs. Purified SOS1 (aa 564-1049) protein, GTPγS (Sigma) and GST-cRaf RBD (aa 1-149) were then added to each well and incubated at 24° C. for additional 3 hrs. […] Following the incubation, Mab Anti-6HIS-Tb cryptate (Cisbio) and Mab Anti GST-XL665 (Cisbio) were added and further incubated at 24° C. for 3 hrs. The binding interaction between active GTPγS KRAS G12C and GST-cRaf RBD brings the Tb and XL665 into close proximity enabling an increased FRET signal (Ex337 nm, Em665 nm/620 nm). The inhibition percentage of nucleotide exchange reaction in presence of increasing concentrations of compounds was calculated based on the ratio of fluorescence at 665 nm to that at 620 nm detected on a BMG PHERAstar FSX instrument. The IC50 value of each compound was calculated from fitting the data to the four-parameter logistic model by Dotmatics.

Row | Compound | IC50 [µM]
1 | C=CC(=O)N1CCN(c2nc(OC[C@@H]3CCCN3C)nc3c2CN(C2CCc4ccccc42)C3)C[C@@H]1CC#N (stereo partly drawn) [Example 45] | 0.0126
2 | C=CC(=O)N1CCN(c2nc(OC[C@@H]3CCCN3C)nc3c2CN(Cc2c(O)cccc2F)C3)C[C@@H]1CC#N [Example 23, 2-((S)-1-acryloyl-4-(6-(2-fluoro-6-hydroxybenzyl)-2-(((S)-1-methylpyrrolidin-2-yl)methoxy)-6,7-dihydro-5H-pyrrolo[3,4-d]pyrimidin-4-yl)piperazin-2-yl)acetonitrile] | 0.0281
3 | C=CC(=O)N1CCN(c2nc(OC[C@@H]3CCCN3C)nc3c2CN(C(=O)c2cccc4ccccc24)C3)C[C@@H]1CC#N [Example 32, 2-((S)-4-(6-(1-naphthoyl)-2-(((S)-1-methylpyrrolidin-2-yl)methoxy)-6,7-dihydro-5H-pyrrolo[3,4-d]pyrimidin-4-yl)-1-acryloylpiperazin-2-yl)acetonitrile] | 0.0395
4 | C=CC(=O)N1CCN(c2nc(OC[C@@H]3CCCN3C)nc3c2CN(C(=O)c2cc(O)ccc2C)C3)C[C@@H]1CC#N [Example 47] | 0.102
5 | C=CC(=O)N1CCN(c2nc(OC[C@@H]3CCCN3C)nc3c2CN(Cc2c(C)ccc4[nH]ncc24)C3)C[C@@H]1CC#N [Example 41, 2-((S)-1-acryloyl-4-(6-((5-methyl-1H-indazol-4-yl)methyl)-2-(((S)-1-methylpyrrolidin-2-yl)methoxy)-6,7-dihydro-5H-pyrrolo[3,4-d]pyrimidin-4-yl)piperazin-2-yl)acetonitrile] | 0.0772
6 | C=CC(=O)N1CCN(c2nc(OC[C@@H]3CCCN3C)nc3c2CN(C2Cc4cccc5cc(O)cc2c45)C3)C[C@@H]1CC#N (stereo partly drawn) [Example 55] | < 0.0051
7 | C=CC(=O)N1CCN(c2nc(OC[C@@H]3CCCN3C)nc3c2CN(Cc2cccc4ccccc24)C3)CC1 [Example 1, (S)-1-(4-(2-((1-methylpyrrolidin-2-yl)methoxy)-6-(naphthalen-1-ylmethyl)-6,7-dihydro-5H-pyrrolo[3,4-d]pyrimidin-4-yl)piperazin-1-yl)prop-2-en-1-one] | 3.28
8 | C=CC(=O)N1CCN(c2nc(N3CC(N(C)C)C3)nc3c2CN(Cc2cccc4ccccc24)C3)C[C@@H]1CC#N [Example 19, (S)-2-(1-acryloyl-4-(2-(3-(dimethylamino)azetidin-1-yl)-6-(naphthalen-1-ylmethyl)-6,7-dihydro-5H-pyrrolo[3,4-d]pyrimidin-4-yl)piperazin-2-yl)acetonitrile] | 0.976
9 | C=CC(=O)N1CCN(c2nc(OC[C@@H]3CCCN3C)nc3c2CN(Cc2cccc4cccc(O)c24)C3)C[C@@H]1CC#N [Example 24, 2-((S)-1-acryloyl-4-(6-((8-hydroxynaphthalen-1-yl)methyl)-2-(((S)-1-methylpyrrolidin-2-yl)methoxy)-6,7-dihydro-5H-pyrrolo[3,4-d]pyrimidin-4-yl)piperazin-2-yl)acetonitrile] | 0.101
10 | C=CC(=O)N1CCN(c2nc(OC[C@@H]3CCCN3C)nc3c2CN(c2cccc4cccc(C)c24)C3)C[C@@H]1CC#N [Example 28, 2-((S)-1-acryloyl-4-(6-(8-methylnaphthalen-1-yl)-2-(((S)-1-methylpyrrolidin-2-yl)methoxy)-6,7-dihydro-5H-pyrrolo[3,4-d]pyrimidin-4-yl)piperazin-2-yl)acetonitrile] | 0.178
11 | C=CC(=O)N1CCN(c2nc(OCC3CCCN3C)nc3c2CN(C2Cc4cccc5cccc2c45)C3)CC1CC#N (single isomer, unassigned) [Example 15 (P1)] | 0.492
12 | C=CC(=O)N1CCN(c2nc(OC[C@@H]3CCCN3C)nc3c2CN(C(=O)Nc2cccc4ccccc24)C3)C[C@@H]1CC#N [Example 38, 4-((S)-4-acryloyl-3-(cyanomethyl)piperazin-1-yl)-2-(((S)-1-methylpyrrolidin-2-yl)methoxy)-N-(naphthalen-1-yl)-5,7-dihydro-6H-pyrrolo[3,4-d]pyrimidine-6-carboxamide] | 1.57
